Measurements: patent publication US10687543B2, “Probiotic bacterial molecules and their use in methods to treat/prevent infection by harmful bacteria and to provide nutritional health” (priority 2008, dated 2020)

Tested on: E. coli O157:H7 strain VS94
Format: cell-based, Escherichia coli O157:H7

How did the “% Adherence” value turn out when CC(C)NCC(O)COc1cccc2ccccc12 (stereo not drawn) [β-blocker, propanolol] was run?
Its value is 22%.
